From PMC10721329, “Quisinostat is a brain-penetrant radiosensitizer in glioblastoma” (JCI Insight, 2023)
Several values for one entry are separate records, joined by “and”; a condition that tells them apart may be missing. Identical values can stand only once.

Experiments:
[1] = system: BT145 cells; assay: Annexin V / ViaDye Red flow cytometry (apoptosis); type: cell-based, human; settings: 75 nM QST
From the text: (§1) For apoptosis analysis, the Dead Cell Apoptosis Kit with Annexin V FITC and Propidium Iodide for Flow Cytometry (Thermo Fisher Scientific, V13242) was followed using the manufacturer instructions, with the exception that we employed ViaDye Red Fixable Viability Dye Kit (Cytek, SKU R7-60008) instead of propidium iodide to label necrotic cells. Samples were run on the AURORA 3L 24 color spectrum cytometers (Cytek), unmixed by SpectroFlo application, and analyzed with FlowJo 10.8.1 software (Beckton Dickinson). Recommended negative controls for flow cytometry include (1) no Annexin V FITC and no ViaDye Red, (2) Annexin V FITC alone, and (3) ViaDye Red alone. The following gating strategy was used: debris population was excluded as the subset of cells with low forward scatter in the forward scatter area versus side scatter area plot. After excluding the debris, cells were gated on the Annexin versus ViaDye Red log plot with the classification as live (Annexin V negative, ViaDye Red negative), early apoptotic (Annexin V positive, ViaDye Red negative), late apoptotic (Annexin V positive, ViaDye Red positive), or necrotic (Annexin V negative, ViaDye Red positive). The frequency of the different cell subsets was reported as frequency on the total cell population, excluding debris. […]

[2] = system: GB126 cells; assay: Annexin V / ViaDye Red flow cytometry (apoptosis); type: cell-based, human; settings: 86 nM QST
From the text: as §1

[3] = representative plot, quadrant assigned by inference

Question: What does the source list for `Cn1cc(CNCC2CCN(c3ncc(C(=O)NO)cn3)CC2)c2ccccc21` [QST, quisinostat]?
Answer: Apoptotic, Annexin+ ViaDye - (%) ([1]; replicates): 60% and 53.4% and 59.8%; Dead, Annexin+ ViaDye + (%) ([1]; replicates): 5.66% and 6.66% and 4.49%; ViaDyeRed / Annexin V-FITC dot plot quadrant, live (Annexin-, ViaDye-) [1, 3]: 39.3; ViaDyeRed / Annexin V-FITC dot plot quadrant, necrotic (Annexin-, ViaDye+) [1, 3]: 0.65; Apoptotic, Annexin+ ViaDye - (%) ([2]; replicates): 9.54% and 12.5% and 8.59%; Dead, Annexin+ ViaDye + (%) ([2]; replicates): 12.7% and 14.5% and 9.91%; ViaDyeRed / Annexin V-FITC dot plot quadrant, live (Annexin-, ViaDye-) [2, 3]: 71.9; ViaDyeRed / Annexin V-FITC dot plot quadrant, necrotic (Annexin-, ViaDye+) [2, 3]: 5.85
